Experiment: xn = mol fraction of the nth substance listed
Conditions: 100 kPa, Liquid; for speed of sound: Frequency=5 MHz, Pulse-echo method; for mass density: Vibrating tube method

OCCCCCO [1,5-pentanediol] + O
Conditions	mass density [kg/m3]	speed of sound [m/s]
308.15 K, x1 = 0.005	993.57	–
308.15 K, x1 = 0.0101	993.45	–
308.15 K, x1 = 0.0196	993.6	–
308.15 K, x1 = 0.0251	993.93	–
308.15 K, x1 = 0.0304	994.32	–
308.15 K, x1 = 0.05	995.28	–
308.15 K, x1 = 0.0769	995.98	–
308.15 K, x1 = 0.0798	–	1647
308.15 K, x1 = 0.0835	–	1649.2
308.15 K, x1 = 0.0879	–	1651.5
308.15 K, x1 = 0.0918	–	1653.4
308.15 K, x1 = 0.0964	–	1655.5
308.15 K, x1 = 0.1002	996.54	1657
308.15 K, x1 = 0.106	–	1659
308.15 K, x1 = 0.1116	–	1660.7
308.15 K, x1 = 0.1172	–	1662.1
308.15 K, x1 = 0.1233	–	1663.4
308.15 K, x1 = 0.131	–	1664.8
308.15 K, x1 = 0.1377	–	1665.7
308.15 K, x1 = 0.1435	–	1666.3
308.15 K, x1 = 0.1438	996.71	–
308.15 K, x1 = 0.1514	–	1666.9
308.15 K, x1 = 0.161	–	1667.4
308.15 K, x1 = 0.1675	–	1667.5
308.15 K, x1 = 0.1737	–	1667.6
308.15 K, x1 = 0.1787	–	1667.6
308.15 K, x1 = 0.1838	–	1667.5
308.15 K, x1 = 0.1845	996.26	–
308.15 K, x1 = 0.1893	–	1667.4
308.15 K, x1 = 0.1953	–	1667.2
308.15 K, x1 = 0.2011	–	1667
308.15 K, x1 = 0.2239	–	1665.8
308.15 K, x1 = 0.2306	–	1665.4
308.15 K, x1 = 0.2378	–	1664.9
308.15 K, x1 = 0.2491	–	1664
308.15 K, x1 = 0.2503	995.17	–
308.15 K, x1 = 0.2581	–	1663.3
308.15 K, x1 = 0.2683	–	1662.5
308.15 K, x1 = 0.2832	–	1661.2
308.15 K, x1 = 0.3	994.06	–
308.15 K, x1 = 0.3005	–	1659.5
308.15 K, x1 = 0.3223	–	1657.4
308.15 K, x1 = 0.3343	993.37	–
308.15 K, x1 = 0.3402	–	1655.5
308.15 K, x1 = 0.3515	–	1654.3
308.15 K, x1 = 0.3735	–	1651.8
308.15 K, x1 = 0.3924	–	1649.6
308.15 K, x1 = 0.4062	–	1647.9
308.15 K, x1 = 0.4171	991.68	–
308.15 K, x1 = 0.4304	–	1644.9
308.15 K, x1 = 0.4462	–	1642.8
308.15 K, x1 = 0.454	990.78	–
308.15 K, x1 = 0.4661	–	1640.2
308.15 K, x1 = 0.4803	–	1638.3
308.15 K, x1 = 0.4957	–	1636.1
308.15 K, x1 = 0.5003	989.8	–
308.15 K, x1 = 0.5119	–	1633.9
308.15 K, x1 = 0.5238	–	1632.2
308.15 K, x1 = 0.5362	989.1	–
308.15 K, x1 = 0.5406	–	1629.8
308.15 K, x1 = 0.5482	–	1628.7
308.15 K, x1 = 0.5622	–	1626.7
308.15 K, x1 = 0.5848	–	1623.5
308.15 K, x1 = 0.6035	–	1620.8
308.15 K, x1 = 0.6177	987.6	–
308.15 K, x1 = 0.6216	–	1618.2
308.15 K, x1 = 0.6446	–	1615
308.15 K, x1 = 0.6478	987	–
308.15 K, x1 = 0.6646	–	1612.2
308.15 K, x1 = 0.6864	–	1609.3
308.15 K, x1 = 0.7025	986.1	–
308.15 K, x1 = 0.7086	–	1606.4
308.15 K, x1 = 0.7293	–	1603.7
308.15 K, x1 = 0.7497	–	1601.1
308.15 K, x1 = 0.7504	985.3	–
308.15 K, x1 = 0.7689	–	1598.8
308.15 K, x1 = 0.7904	–	1596.2
308.15 K, x1 = 0.7927	984.6	–
308.15 K, x1 = 0.8099	–	1593.9
308.15 K, x1 = 0.8308	–	1591.5
308.15 K, x1 = 0.8561	–	1588.6
308.15 K, x1 = 0.8605	983.4	–
308.15 K, x1 = 0.8812	–	1585.8
308.15 K, x1 = 0.9004	982.7	–
308.15 K, x1 = 0.9098	–	1582.5
308.15 K, x1 = 0.9326	–	1579.9
308.15 K, x1 = 0.9496	981.7	–
308.15 K, x1 = 0.9519	–	1577.5
308.15 K, x1 = 0.9707	–	1575.2
308.15 K, x1 = 0.9812	–	1573.8
308.15 K, x1 = 0.9864	–	1573.2
308.15 K, x1 = 0.9944	–	1572.1
308.15 K, x1 = 1	980.7	1571.3
313.15 K, x1 = 0.0002	–	1529.3
313.15 K, x1 = 0.0004	–	1529.9
313.15 K, x1 = 0.0006	–	1530.6
313.15 K, x1 = 0.0009	–	1531.5
313.15 K, x1 = 0.0013	–	1532.4
313.15 K, x1 = 0.0016	–	1533.4
313.15 K, x1 = 0.002	–	1534.5
313.15 K, x1 = 0.0025	–	1535.9
313.15 K, x1 = 0.0032	–	1537.6
313.15 K, x1 = 0.0039	–	1539.6
313.15 K, x1 = 0.0045	–	1541.2
313.15 K, x1 = 0.0052	–	1542.9
313.15 K, x1 = 0.0058	–	1544.6
313.15 K, x1 = 0.0065	–	1546.5
313.15 K, x1 = 0.0073	–	1548.3
313.15 K, x1 = 0.0081	–	1550.4
313.15 K, x1 = 0.0088	–	1552.1
313.15 K, x1 = 0.0097	–	1554.2
313.15 K, x1 = 0.0107	–	1556.6
313.15 K, x1 = 0.0118	–	1559
313.15 K, x1 = 0.013	–	1561.7
313.15 K, x1 = 0.0142	–	1564.4
313.15 K, x1 = 0.0153	–	1566.8
313.15 K, x1 = 0.0164	–	1569.2
313.15 K, x1 = 0.0176	–	1571.6
313.15 K, x1 = 0.0187	–	1573.8
313.15 K, x1 = 0.02	–	1576.4
313.15 K, x1 = 0.0214	–	1579
313.15 K, x1 = 0.0227	–	1581.5
313.15 K, x1 = 0.0243	–	1584.4
313.15 K, x1 = 0.0259	–	1587.2
313.15 K, x1 = 0.0276	–	1590
313.15 K, x1 = 0.0293	–	1592.8
313.15 K, x1 = 0.0308	–	1595.3
313.15 K, x1 = 0.0322	–	1597.4
313.15 K, x1 = 0.0341	–	1600.2
313.15 K, x1 = 0.036	–	1602.9
313.15 K, x1 = 0.0378	–	1605.4
313.15 K, x1 = 0.0395	–	1607.7
313.15 K, x1 = 0.0417	–	1610.5
313.15 K, x1 = 0.0441	–	1613.4
313.15 K, x1 = 0.0462	–	1615.8
313.15 K, x1 = 0.0486	–	1618.4
313.15 K, x1 = 0.0505	–	1620.4
313.15 K, x1 = 0.0522	–	1622.1
313.15 K, x1 = 0.0542	–	1624.1
313.15 K, x1 = 0.0571	–	1626.6
313.15 K, x1 = 0.0588	–	1628.1
313.15 K, x1 = 0.0608	–	1629.8
313.15 K, x1 = 0.0624	–	1631.2
313.15 K, x1 = 0.0648	–	1632.9
313.15 K, x1 = 0.0682	–	1635.4
313.15 K, x1 = 0.0705	–	1636.9
313.15 K, x1 = 0.0732	–	1638.6
313.15 K, x1 = 0.0767	–	1640.7
313.15 K, x1 = 0.0802	–	1642.6
313.15 K, x1 = 0.0837	–	1644.2
313.15 K, x1 = 0.0875	–	1646
313.15 K, x1 = 0.0918	–	1647.7
313.15 K, x1 = 0.0975	–	1649.7
313.15 K, x1 = 0.1013	–	1650.9
313.15 K, x1 = 0.106	–	1652.2
313.15 K, x1 = 0.1096	–	1653
